Measurements from patent US20170037078A1, “2' -DIS[…] FOR TREATMENT OF THE FL[…] OF VIRUSES AND CANCER” (Cocrystal Pharma, Inc., priority 2014, published 2017).
Entries after “also recorded” stand apart in the source; their conditions may differ. Read-outs that look alike come from different tables or passages of the source.

Experiments:
Assay type in all cases: cell-based
[1] = test system: Primary human bone marrow mononuclear cells; test: Bone Marrow Colony Forming Cell Assay (BFU-E)
Experimental: Primary human bone marrow mononuclear cells were obtained commercially from Cambrex Bioscience (Walkersville, Md.). CFU-GM assays were carried out using a bilayer soft agar in the presence of 50 units/mL human recombinant granulocyte/macrophage colony-stimulating factor, while BFU-E assays used a […] matrix containing 1 unit/mL erythropoietin (see Sommadossi J P, Carlisle R. Toxicity of 3′-azido-3′-deoxythymidine and 9-(1,3-dihydroxy-2-propoxymethyl) guanine for normal human hepatopoietic progenitor cells in vitro. Antimicrob. Agents Chemother. 1987; 31: 452-454; Sommadossi, J P, Schinazi, R F, Chu, C K, and Xie, M Y. Comparison of cytotoxicity of the (−) and (+) enantiomer of 2′,3′-dideoxy-3′-thiacytidine in normal human bone marrow progenitor cells. Biochem. Pharmacol. 1992; 44:1921-1925). Each experiment was performed in duplicate in cells from three different donors. AZT was used as a positive control. […] The 50% inhibitory concentration (IC50) was obtained by least-squares linear regression analysis of the logarithm of drug concentration versus BFU-E survival fractions. Statistical analysis was performed with Student's t test for independent non-paired samples.

Human PBM = test: Cellular toxicity assay in human PBM cells; conditions: Human PBM cells
Experimental: (§1) The toxicity of the compounds was assessed in Vero, human PBM, CEM (human lymphoblastoid), MT-2, and HepG2 cells, as described previously (see Schinazi R. F., Sommadossi J.-P., Saalmann V., Cannon D. L., Xie M.-Y., Hart G. C., Smith G. A. & Hahn E. F. Antimicrob. Agents Chemother. 1990, 34, 1061-67). Cycloheximide was included as positive cytotoxic control, and untreated cells exposed to solvent were included as negative controls. The cytotoxicity IC50 was obtained from the concentration-response curve using the median effective method described previously (see Chou T.-C. & Talalay P. Adv. Enzyme Regul. 1984, 22, 27-55; Belen'kii M. S. & Schinazi R. F. Antiviral Res. 1994, 25, 1-11).

Vero = test: Cellular toxicity assay in Vero cells
Experimental: as §1

[2] = test system: CEM (human lymphoblastoid); test: Cellular toxicity assay in CEM cells
Experimental: as §1

HepG2 cells [3] = test: Mitochondrial toxicity assay: mitochondrial and nuclear DNA levels in HepG2 cells; conditions: 14-day assay
Experimental: This assay was used in all studies described in this application that determine the effect of compounds on mitochondrial DNA content. In this assay, low-passage-number HepG2 cells were seeded at 5,000 cells/well in collagen-coated 96-well plates. Test compounds were added to the medium to obtain final concentrations of 0 μM, 0.1 μM, 10 μM and 100 μM. […] The mitochondrial cytochrome c oxidase subunit II (COXII) gene and the β-actin or rRNA gene were amplified from 5 μl of the eluted nucleic acids using a multiplex Q-PCR protocol with suitable primers and probes for both target and reference amplifications. […] For exon 3 of the […] gene (GenBank accession number E01094) the sense, probe, and antisense primers are 5′-[…]-3′, 5′-6-[…]-3′ and 5′-[…]-3′, respectively. The primers and probes for the rRNA gene are commercially available from Applied Biosystems. […] The arithmetic formula for this approach is given by 2-ΔΔCT, where ΔΔCT is (CT for average target test sample−CT for target control)−(CT for average reference test−CT for reference control) (see Johnson M R, K Wang, J B Smith, M J Heslin, R B Diasio. Quantitation of dihydropyrimidine dehydrogenase expression by real-time reverse transcription polymerase chain reaction. Anal. Biochem. 2000; 278:175-184). A decrease in mitochondrial DNA content in cells grown in the presence of drug indicated mitochondrial toxicity.

HepG2 cells [4] = test: Mitochondrial toxicity assay: lactic acid production in HepG2 cells; conditions: 14-day assay
Experimental: To measure the effects of the compounds on lactic acid production, HepG2 cells from a stock culture were diluted and plated in 12-well culture plates at 2.5×10^4 cells per well. […] […] The culture medium was then filtered, and the lactic acid content in the medium was determined using a colorimetric lactic acid assay (Sigma-Aldrich). Since lactic acid product can be considered a marker for impaired mitochondrial function, elevated levels of lactic acid production detected in cells grown in the presence of test compounds would indicate a drug-induced cytotoxic effect. • ii) Effect of Compounds on Mitochondrial DNA Synthesis:

[5] = test system: HCV GT 1b replicon (Huh-7 cells); test: HCV Replicon Assay
Experimental: (§2) Huh 7 Clone B cells containing HCV Replicon RNA were seeded in a 96-well plate at 5000 cells/well, and the compounds tested at 10 μM in triplicate immediately after seeding. Following five days incubation (37° C., 5% CO2), total cellular RNA was isolated by using versaGene RNA purification kit from Gentra. Replicon RNA and an internal control (TaqMan rRNA control reagents, Applied Biosystems) were amplified in a single step multiplex Real Time RT-PCR Assay. The antiviral effectiveness of the compounds was calculated by subtracting the threshold RT-PCR cycle of the test compound from the threshold RT-PCR cycle of the no-drug control (ΔCt HCV). A ΔCt of 3.3 equals a 1-log reduction (equal to 90% less starting material) in Replicon RNA levels. The cytotoxicity of the compounds was also calculated by using the ΔCt rRNA values. 2′-C-Me-C was used as the positive control. To determine EC90 and IC50 values^2, ΔCt: values were first converted into fraction of starting material^3 and then were used to calculate the % inhibition.

Huh-7 cells = test: Cytotoxicity in HCV replicon assay (ΔCt rRNA); conditions: HCV GT 1b replicon, Huh-7 cells
Experimental: as §2

Cc1cn([C@H]2C[C@H](N=[N+]=[N-])[C@@H](CO)O2)c(=O)[nH]c1=O [AZT, reference compound]
IC50 ([1]; Donor 1): 0.3 µM
IC50 ([1]; Donor 2): 2.9 µM

O=c1ccn(C2OC(CO)C(O)C2(F)Cl)c(=O)[nH]1 (stereo not shown) [Compound 10]
% inhibition at maximum concentration evaluated (Human PBM): −4.1%
CC50 (Human PBM; read-out: Cytotoxicity, CC50): > 100 µM
% inhibition at maximum concentration evaluated (Vero): −30.7%
CC50 (Vero; read-out: Cytotoxicity, CC50): > 100 µM
% inhibition at maximum concentration evaluated [2]: −48.1%
CC50 ([2]; read-out: Cytotoxicity, CC50): > 100 µM
Summary (mitochondrial toxicity) (HepG2 cells [3]): non-toxic; also recorded: not toxic
% Inhibition MtDNA (HepG2 cells [3]; 10 μM): < 1%
% Inhibition nDNA (HepG2 cells [3]; 10 μM): 8.76%
MtDNA Content (% of control) (HepG2 cells [3]; 10 μM): 161 (113-230) % of control
% Inhibition MtDNA (HepG2 cells [3]; 50 μM): <1/<1%
% Inhibition nDNA (HepG2 cells [3]; 50 μM): <1/<1%
MtDNA Content (% of control) (HepG2 cells [3]; 50 μM): 116 (77-175) % of control
IC50 (HepG2 cells [3]; read-out: IC50, MtDNA): > 50 µM
IC50 (HepG2 cells [3]; read-out: IC50, nDNA): > 50 µM
Lactic acid Production (% of control) (HepG2 cells [4]; 10 μM): 84.59 ± 7.30 % of control
Lactic acid Production (% of control) (HepG2 cells [4]; 50 μM): 122.3 ± 5.80 % of control
EC50 [5]: > 10 µM
EC90 [5]: > 10 µM
CC50 (Huh-7 cells): > 10 µM
